According to the NIST ThermoML archive (doi:10.1016/j.jct.2010.12.021):

What was measured:
[1] = for viscosity / mass density: 101.33 kPa, Liquid; for viscosity: Falling or rolling sphere viscometry; for mass density: Vibrating tube method
[2] = Molar enthalpy of transition or fusion; conditions: Crystal; DSC

CCCCCC[n+]1cccc2ccccc21.O=S(=O)([N-]S(=O)(=O)C(F)(F)F)C(F)(F)F [1-hexylquinolinium bis(trifluoromethylsulfonyl)amide]
[1]
Conditions | mass density [kg/m3] | viscosity [mPa·s]
323.15 K | 1365.94 | 100.1
328.15 K | 1361.65 | 77.97
333.15 K | 1357.35 | 61.78
338.15 K | 1353.06 | 50.09
343.15 K | 1348.77 | 41.08
348.15 K | 1344.52 | 34.22

Conditions | Normal melting temperature [°C]
[1], Crystal, DTA | 44.1

Conditions | Molar enthalpy of transition or fusion [kcal/mol]
[2] | 15.2
